In brackets after ≈: the same amount, converted by molar mass. Read-outs that look alike come from different tables or passages of the source.
Assays:
[1] = test system: B16-F10 (murine melanoma) cells; test: in vitro cytotoxicity against B16-F10 (neutral red staining, 72 hours); type: cell-based; conditions: Mus musculus
Description: (§1) BU-3862T and diacetyl-, dihydro- and tetrahydro-BU-3862T were tested for in vitro cytotoxicity against several murine and human tumor cell lines and/or for in vivo antitumor activity in mice. […] B16-F10 (murine melanoma), P388 (murine leukemia), L1210 (murine leukemia) and Moser (human colorectal carcinoma) cells were grown to the logarithmic phase in enriched Eagle minimum essential medium (MEM) supplemented with fetal calf serum (FCS, 10%) and kanamycin (60 mcg/ml), and HCT-116 (human colon carcinoma) cells in Maccoy's 5A medium supplemented with FCS (10%), penicillin (100 u/ml) and streptomycin (100 mcg/ml), harvested and inoculated into wells of the 96- or 24-well tissue culture plate with test materials at the concentrations of 1.5×10^5, 1.2×10^4,1.2×10^4, 2.5×10^5 and 3.0×10^5 cells/ml, respectively. They were incubated at 37° C. in humidified atmosphere of 5% CO2 and 95% air for 72 hours. The cytotoxic activities against B16-F10, Moser and HCT-116 cells were colorimetrically determined at 540 nm after staining viable cells with 0.006% neutral red solution. On the other hand, the cytotoxic activities against P388 and L1210 cells were determined by counting the number of viable cells.

[2] = test system: HCT-116 (human colon carcinoma) cells; test: in vitro cytotoxicity against HCT-116 (neutral red staining, 72 hours); type: cell-based
Description: as §1

B16 melanoma = conditions: for minimum effective dose relative to the parent compound: versus BU-3862T; for inhibitory activity against experimental animal tumor systems: e.g. B16 melanoma in mice; for antitumor efficacy against B16 melanoma, in words: ip; for T/C: Table 6, QD × 9
Description: (§2) In vivo antitumor activities of BU-3862T and the diacetyl and dihydro derivatives were determined in tumor-bearing BDF1 or CDF1 mice. Male BDF1 mice were intraperitoneally inoculated with 0.5 ml of 10% melanotic melanoma B16 brei and female CDF1 mice were also intraperitoneally inoculated with 0.4 ml of diluted ascitic fluid containing 10^5 lymphoid leukemia L1210 cells or 10^6 lymphocytic leukemia P388 cells.

[3] = biological activity of BU-3862T derivatives
[4] = test system: murine and human tumor cell lines
Description: as §1

[5] = test system: Moser (human colorectal carcinoma) cells; test: in vitro cytotoxicity against Moser (neutral red staining, 72 hours); type: cell-based
Description: as §1

[6] = test system: DNA synthesis in B16-F10 melanoma cells; test: inhibition of DNA synthesis in cultured B16-F10 melanoma cells; type: cell-based, murine
[7] = test system: protein synthesis in B16-F10 melanoma cells; test: inhibition of protein synthesis in cultured B16-F10 melanoma cells; type: cell-based, murine
[8] = test system: RNA synthesis in B16-F10 melanoma cells; test: inhibition of RNA synthesis in cultured B16-F10 melanoma cells; type: cell-based, murine; conditions: Mus musculus, 14C-uridine incorporation, 4 hours + 60 min
[9] = test system: P388 (murine leukemia) cells; test: in vitro cytotoxicity against P388 (viable cell count, 72 hours); type: cell-based; conditions: Mus musculus; P388, 72 hours
Description: as §1

solubility = type: physicochemical
P388 leukemia = conditions: at the doses tested
Description: as §2

[10] = test system: L1210 (murine leukemia) cells; test: in vitro cytotoxicity against L1210 (viable cell count, 72 hours); type: cell-based; conditions: Mus musculus; L1210, 72 hours
Description: as §1

[11] = B16-F10, 72 hours, read-out: IC50
[12] = HCT-116, 72 hours, read-out: IC50
[13] = Moser, 72 hours, read-out: IC50

Description for L1210 leukemia: as §2

**Q.** Which IC50 [1, 11] does the source give for `C=C(C)CC(NC(=O)[C@H](COC(C)=O)NC(=O)CCCCC(C)C)C(=O)C1(COC(C)=O)CO1` (some centres unmarked) [Diacetyl-BU-3862T] here?
**A.** 0.003 µg/mL (≈ 0.00622 µM)

**Q.** What about the IC50 [2, 12] of the same molecule?
**A.** 0.017 µg/mL (≈ 0.0352 µM)

**Q.** What about the “minimum effective dose relative to the parent compound” value (B16 melanoma; Q4D × 3, ip) of the same molecule?
**A.** approximately ten times less active than the parent compound

**Q.** And the “inhibitory activity against experimental animal tumor systems” value (B16 melanoma)?
**A.** exhibit inhibitory activity

**Q.** And the “antitumor efficacy against B16 melanoma, in words” value (B16 melanoma)?
**A.** significant anti-B16 melanoma activity

**Q.** And the “biological activity, in words” value [3]?
**A.** retained the biological activity

**Q.** What about the “cytotoxic potency relative to BU-3862T” value [4] of the same molecule?
**A.** approximately half those of BU-3862T

**Q.** What about the IC50 [5, 13] of the same molecule?
**A.** 0.044 µg/mL (≈ 0.0912 µM)

**Q.** For `CC(C)CCCCC(=O)N[C@@H](CO)C(=O)NC(CC(C)C)C(=O)C(CO)CO` (some centres unmarked) [Tetrahydro-BU-3862T], which IC50 [1, 11] is on record?
**A.** 0.53 µg/mL (≈ 1.32 µM)

**Q.** And the IC50 [2, 12]?
**A.** > 1 µg/mL

**Q.** What about the “biological activity, in words” value [3] of the same molecule?
**A.** devoid of the activity

**Q.** What about the “cytotoxic activity compared with BU-3862T, diacetyl and dihydro derivatives” value [4] of the same molecule?
**A.** significantly less active than the above compounds

**Q.** What about the IC50 [5, 13] of the same molecule?
**A.** > 1 µg/mL

**Q.** For `C=C(C)CC(NC(=O)[C@H](CO)NC(=O)CCCCC(C)C)C(=O)C1(CO)CO1` (some centres unmarked) [BU-3862T], which IC50 [1, 11] is on record?
**A.** 0.0017 µg/mL (≈ 0.00427 µM)

**Q.** What about the “potency on DNA synthesis relative to that on RNA synthesis in terms of IC50 value” ([6]; DNA versus RNA synthesis) of the same molecule?
**A.** over 100 times

**Q.** And the IC50 ([6]; Mus musculus, B16-F10, 3H-thymidine incorporation, 3.5 hours + 30 min)?
**A.** 0.1 µg/mL

**Q.** And the T/C (L1210 leukemia; 0.25 mg/kg/day ip, Q3D × 3)?
**A.** 119%

**Q.** And the T/C (L1210 leukemia; 1.0 mg/kg/day ip, Q3D × 3)?
**A.** 125%

**Q.** And the T/C (L1210 leukemia; 2.0 mg/kg/day ip, Q3D × 3)?
**A.** 144%

**Q.** What about the T/C (L1210 leukemia; 4.0 mg/kg/day ip, Q3D × 3) of the same molecule?
**A.** Tox.

**Q.** What about the “maximum T/C value” (L1210 leukemia; L1210 leukemia, ip) of the same molecule?
**A.** 145%

**Q.** And the “antitumor activity against L1210 leukemia, in words” value (L1210 leukemia; ip)?
**A.** moderate antitumor activity

**Q.** What about the IC50 ([7]; Mus musculus, B16-F10, 3H-leucine incorporation, 4 hours + 60 min) of the same molecule?
**A.** 0.06 µg/mL

**Q.** What about the “potency on protein synthesis relative to that on RNA synthesis in terms of IC50 value” ([7]; protein versus RNA synthesis) of the same molecule?
**A.** over 100 times

**Q.** And the IC50 [8]?
**A.** 11 µg/mL

**Q.** What about the IC50 [9] of the same molecule?
**A.** 0.031 µg/mL (≈ 0.0778 µM)

**Q.** And the solubility (solubility; in benzene and other organic solvents)?
**A.** practically insoluble

**Q.** And the solubility (solubility; in dimethyl sulfoxide, dimethylformamide, methanol, ethanol, ethyl acetate and chloroform)?
**A.** readily soluble

**Q.** And the solubility (solubility; in water)?
**A.** practically insoluble

**Q.** What about the IC50 [2, 12] of the same molecule?
**A.** 0.0097 µg/mL (≈ 0.0243 µM)

**Q.** What about the “potency (minimum effective dose) relative to mitomycin C” value (B16 melanoma; Q4D × 3, ip) of the same molecule?
**A.** the same as that of mitomycin C

**Q.** What about the “chemotherapeutic index (ratio of optimal dose to minimum effective dose), intermittent versus consecutive dosing” value (B16 melanoma; Q4D × 3 versus QD × 9) of the same molecule?
**A.** broader therapeutic range

**Q.** And the “maximum T/C value, intermittent versus consecutive dosing” value (B16 melanoma; Q4D × 3 versus QD × 9)?
**A.** better antitumor activity

**Q.** And the T/C (B16 melanoma; 0.13 mg/kg/day ip)?
**A.** 123%

**Q.** What about the T/C (B16 melanoma; 0.25 mg/kg/day ip) of the same molecule?
**A.** 133%

**Q.** And the T/C (B16 melanoma; 0.5 mg/kg/day ip)?
**A.** 133%

**Q.** And the T/C (B16 melanoma; 0.63 mg/kg/day (so in the source) ip)?
**A.** 113%

**Q.** What about the T/C (B16 melanoma; 1.0 mg/kg/day ip) of the same molecule?
**A.** 97%

**Q.** What about the T/C (B16 melanoma; 2.0 mg/kg/day ip) of the same molecule?
**A.** Tox.

**Q.** What about the “inhibitory activity against experimental animal tumor systems” value (B16 melanoma) of the same molecule?
**A.** exhibit inhibitory activity

**Q.** What about the “antitumor efficacy against B16 melanoma, in words” value (B16 melanoma) of the same molecule?
**A.** excellent therapeutic efficacy against B16 melanoma

**Q.** And the “prolongation of lifespan in P388 leukemia-bearing mice” value (P388 leukemia)?
**A.** no significant prolongation of lifespan

**Q.** And the IC50 [5, 13]?
**A.** 0.016 µg/mL (≈ 0.0402 µM)

**Q.** What about the IC50 [10] of the same molecule?
**A.** 0.01 µg/mL (≈ 0.0251 µM)

**Q.** Which results are given for `CC(C)CCCCC(=O)N[C@@H](CO)C(=O)NC(CC(C)C)C(=O)C1(CO)CO1` (some centres unmarked) [Dihydro-BU-3862T]?
**A.** IC50 [1, 11]: 0.0032 µg/mL (≈ 0.00799 µM); IC50 [2, 12]: 0.013 µg/mL (≈ 0.0325 µM); minimum effective dose relative to the parent compound (B16 melanoma; Q4D × 3, ip): approximately ten times less active than the parent compound; inhibitory activity against experimental animal tumor systems (B16 melanoma): exhibit inhibitory activity; antitumor efficacy against B16 melanoma, in words (B16 melanoma): significant anti-B16 melanoma activity; biological activity, in words [3]: retained the biological activity; cytotoxic potency relative to BU-3862T [4]: approximately half those of BU-3862T; IC50 [5, 13]: 0.038 µg/mL (≈ 0.0949 µM)

**Q.** Which IC50 ([1]; B16-F10, 72 h) does the source give for `CO[C@@]12[C@H](COC(N)=O)C3=C(C(=O)C(C)=C(N)C3=O)N1C[C@@H]1N[C@@H]12` [Mitomycin C, reference compound] here?
**A.** 0.5 µg/mL (≈ 1.5 µM)

**Q.** What about the T/C (L1210 leukemia; 0.25 mg/kg/day ip, QD × 3) of the same molecule?
**A.** 125%

**Q.** And the T/C (L1210 leukemia; 0.5 mg/kg/day ip, QD × 3)?
**A.** 131%

**Q.** What about the T/C (L1210 leukemia; 1.0 mg/kg/day ip, QD × 3) of the same molecule?
**A.** 138%

**Q.** What about the T/C (L1210 leukemia; 2.0 mg/kg/day ip, QD × 3) of the same molecule?
**A.** 163%

**Q.** And the IC50 ([2]; HCT-116, 72 h)?
**A.** 0.8 µg/mL (≈ 2.39 µM)

**Q.** And the IC50 ([5]; 72 h)?
**A.** 1.2 µg/mL (≈ 3.59 µM)

Source: patent US4912133A, “BU-3862T antitumor antibiotic” (priority 1988, dated 1990)
